Some test systems named below: COLO 205 colon; HOP-62 NSCLC; KM12 colon; RPMI-8226 leukemia; RXF 393 renal; SF-295 CNS; SR leukemia; UACC-257 melanoma; NCI-H460 lung; SF-539 CNS; SW-620 colon.
Common to all, as to assay: NCI anticancer screen, dose series, 48 h

Several values for one entry are separate records, joined by “and”; a condition that tells them apart may be missing. Equal entries are not always repeated.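 96-well plates; 48 h exposure; 5 concentrations. Endpoints by linear interpolation between flanking doses. Not reached: highest tested concentration assigned. GI50 marks 50% less growth. TGI: concentration producing complete growth inhibition.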

Regarding `CCCCCCC(O)C(=O)OC1C2C(CC1(C)C)C(O)C13OC1C(O)C1(CO1)[C@@]23C` (stereo partly specified), the TGI is > 100 µM with COLO 205 colon; > 100 µM in the experiment on HOP-62 NSCLC; > 100 µM in the experiment with KM12 colon; > 100 µM with RPMI-8226 leukemia; 59.4 µM with RXF 393 renal; > 100 µM with SF-295 CNS. Also, the TGI in the experiment with SR leukemia and in the experiment with UACC-257 melanoma was > 100 µM in each case.
As for `O=c1[nH]c(Br)nc2n[nH]nc12`, the TGI in the experiment on COLO 205 colon was > 100 µM; with HOP-62 NSCLC, 94.8 µM; in the experiment with KM12 colon it was > 100 µM; in the experiment with NCI-H460 lung it was > 100 µM; in the experiment on RPMI-8226 leukemia, > 100 µM; in the experiment with RXF 393 renal, > 100 µM. For the same compound, the TGI with SF-295 CNS is > 100 µM; in the experiment with SF-539 CNS it was 94.9 µM; in the experiment with SR leukemia, > 100 µM; in the experiment with SW-620 colon, > 100 µM; in the experiment on UACC-257 melanoma, > 100 µM.
In the case of `C[n+]1ccc2/c(=C\C#N)c3ccccc3n21`, the TGI is 45.4 µM with COLO 205 colon; > 100 µM in the experiment with HOP-62 NSCLC; 45.1 µM in the experiment with KM12 colon; > 100 µM in the experiment with NCI-H460 lung; 31.3 µM with RPMI-8226 leukemia; > 100 µM in the experiment with RXF 393 renal. In addition, the TGI was > 100 µM with SF-295 CNS, 56.5 µM with SR leukemia, > 100 µM in the experiment with SW-620 colon and 13.9 µM in the experiment on UACC-257 melanoma.
Turning to `C/C1=C\CC[C@@]2(C)O[C@@H]2C[C@@H]2[C@H](C/C(C)=C/CC1)OC(=O)[C@]21CO1`, the TGI in the experiment on COLO 205 colon is > 100 µM; in the experiment on HOP-62 NSCLC, > 100 µM; in the experiment with KM12 colon it was > 100 µM; in the experiment with NCI-H460 lung it was 45.1 µM; in the experiment with RPMI-8226 leukemia it was > 100 µM; with RXF 393 renal, > 100 µM. The TGI in the experiment with SF-295 CNS, with SR leukemia, in the experiment with SW-620 colon and in the experiment with UACC-257 melanoma was > 100 µM in each case.
On to `C[C@@]12C[C@@H](c3ccccc3O1)N1CCCSC1=N2`, for which the TGI with COLO 205 colon, in the experiment with HOP-62 NSCLC, in the experiment with KM12 colon, in the experiment with NCI-H460 lung, in the experiment on RPMI-8226 leukemia and in the experiment on RXF 393 renal was > 100 µM in each case. The TGI in the experiment on SF-295 CNS, in the experiment with SF-539 CNS, in the experiment with SR leukemia, with SW-620 colon and in the experiment on UACC-257 melanoma was > 100 µM throughout.
In the case of `CC(c1ccccc1)n1c2ccccc2c2c(N)ncnc21` (stereo unspecified), the TGI with HOP-62 NSCLC stood at 31.9 µM; in the experiment on NCI-H460 lung it was 58.3 µM; with RPMI-8226 leukemia, 74.5 µM; in the experiment with RXF 393 renal it was 33.5 µM; in the experiment with SF-295 CNS it was 36.6 µM; with SF-539 CNS, 30.8 µM. Besides, the TGI in the experiment on SR leukemia came out at 56.7 µM; with SW-620 colon it was 47.4 µM; in the experiment on UACC-257 melanoma it was 31.2 µM.
With `O=C(O)c1ccccc1/C=N\N(CCO)C1=NCCN1`, the TGI in the experiment with COLO 205 colon, in the experiment on HOP-62 NSCLC, in the experiment with KM12 colon, in the experiment on NCI-H460 lung, in the experiment on RPMI-8226 leukemia and in the experiment with RXF 393 renal was > 100 µM throughout. For the same compound, the TGI with SF-295 CNS, with SF-539 CNS, in the experiment with SR leukemia and with SW-620 colon was > 100 µM in each case.
With `NCCNc1ccc(NCCN)c2c1C(=O)c1c(O)ccc(O)c1C2=O`, the GI50 in the experiment on COLO 205 colon is 0.157 µM; in the experiment with HOP-62 NSCLC it was 0.0189 µM; in the experiment with KM12 colon, 0.105 µM; in the experiment with RXF 393 renal, 0.179 µM; with SF-295 CNS, < 0.0131 µM; in the experiment with SF-539 CNS, < 0.0112 µM. In the experiment on SW-620 colon, the GI50 was 0.0288 µM. Besides, the TGI was 2.36 µM and 1.19 µM in the experiment with COLO 205 colon; 0.147 µM and 0.0642 µM in the experiment on HOP-62 NSCLC; 1.24 µM and 0.731 µM in the experiment with KM12 colon; 0.159 µM and 0.178 µM in the experiment with NCI-H460 lung; 0.692 µM with RPMI-8226 leukemia; 0.387 µM and 0.679 µM with RXF 393 renal. Besides, the TGI in the experiment on SF-295 CNS is 0.414 µM and 0.0618 µM; in the experiment with SF-539 CNS it was 0.932 µM and 0.261 µM; in the experiment on SR leukemia, 0.0171 µM; in the experiment on SW-620 colon, 1.32 µM and 1.12 µM; in the experiment on UACC-257 melanoma it was 3.11 µM and 4.1 µM.
As for `CC1=C(C(=O)NNC(=O)c2ccccc2O)CC(C(=O)NNC(=O)c2ccccc2O)=C(C)N1`, the TGI in the experiment on COLO 205 colon is > 86.8 µM; in the experiment with HOP-62 NSCLC, > 86.2 µM; with KM12 colon, > 100 µM; in the experiment on NCI-H460 lung, > 100 µM; with RPMI-8226 leukemia, > 100 µM; in the experiment on RXF 393 renal, > 100 µM. The TGI is > 100 µM in the experiment with SF-295 CNS; 41.8 µM in the experiment with SF-539 CNS; > 29.2 µM with SR leukemia; > 100 µM in the experiment with SW-620 colon; > 100 µM in the experiment with UACC-257 melanoma.
On to `O=C(Nc1ccccc1)c1cc2cc(CCl)ccc2oc1=O`, for which the TGI with COLO 205 colon, in the experiment on HOP-62 NSCLC, with KM12 colon, with NCI-H460 lung, with RPMI-8226 leukemia and in the experiment on RXF 393 renal was > 100 µM each time. Also, the TGI in the experiment with SF-295 CNS, in the experiment with SR leukemia, in the experiment with SW-620 colon and in the experiment with UACC-257 melanoma was > 100 µM throughout.
In the case of `COc1ccccc1NC(=O)C(=O)C(c1cnc2ccc([N+](=O)[O-])cc2n1)[N+](=O)[O-]` (stereo unspecified), the TGI with COLO 205 colon, in the experiment on HOP-62 NSCLC, in the experiment on KM12 colon, with NCI-H460 lung, in the experiment on RPMI-8226 leukemia and in the experiment with RXF 393 renal was > 100 µM throughout. In addition, the TGI with SF-295 CNS, in the experiment with SF-539 CNS, in the experiment on SR leukemia, with SW-620 colon and with UACC-257 melanoma was > 100 µM in each case.
In the case of `CC1=C(N2CC2)C(=O)C(C)=C(N2CC2)C1=O`, the TGI with COLO 205 colon was determined as 0.822 µM; in the experiment with HOP-62 NSCLC it was 1.09 µM; in the experiment with KM12 colon, 1.89 µM; in the experiment on NCI-H460 lung, 0.634 µM; with RPMI-8226 leukemia, 9.8 µM; with RXF 393 renal, 0.329 µM. The TGI was 1.47 µM in the experiment on SF-295 CNS; 0.808 µM in the experiment on SF-539 CNS; 5.72 µM with SR leukemia; 3.41 µM in the experiment on SW-620 colon; 2.77 µM with UACC-257 melanoma.
For the compound `S=C1C(CCCOCc2ccccc2)C2CCCC23CC2(CCN13)OCCS2` (stereo unspecified), the TGI in the experiment on COLO 205 colon, in the experiment with HOP-62 NSCLC, in the experiment on KM12 colon, in the experiment on NCI-H460 lung, in the experiment with RPMI-8226 leukemia and with RXF 393 renal was > 10 µM throughout. Moreover, the TGI in the experiment on SF-295 CNS, with SF-539 CNS, in the experiment with SR leukemia, in the experiment on SW-620 colon and with UACC-257 melanoma was > 10 µM in each case.

The values above are taken from PubChem BioAssay (NCI).
